This is an account of results in patent publication US20260262635A1, “BAR COMPOSITION HAVING ENHANCED ANTIMICROBIAL ACTIVITY” (Conopco, Inc., d/b/a UNILEVER, priority 2021, published 2026).

The test system of the experiment is S. aureus ATCC 6538. The experiment is described as follows: Time-kill assay adapted from ASTM E2315-16, S. aureus. Particulars: S. aureus and E. coli, 30 seconds of contact. The format is cell-based. The method, then: Aqueous slurries were prepared whereby gratings from the bars made in the Samples of Table I were mixed with water to form a test solution containing 10% by weight of the initial bar component. In the second method, raw bar components, as depicted in the Samples in Table II, were mixed with water to form a test solution containing a total of 10% raw bar component to simulate an aqueous slurry of a bar composition. For each sample, aqueous slurries were mixed at 50° C. to simulate customary consumer washing conditions.
As to the microbes, E. coli ATCC 10536 and S. aureus ATCC 6538 were used in this study to represent Gram negative and Gram positive bacteria, respectively. The bacteria were stored at −80° C. Fresh isolates were cultured twice on Tryptic Soy Agar plates for 24 hours at 37° C. before each experiment.
Test solutions were prepared. In the first method and for the aqueous slurries made from the bar compositions described in Table I, a composition (typically containing up to 15% surfactant) was mixed with water to form a test solution containing 10% weight percent of the initial formulation. In the second method and for the raw ingredients combined in Table II, the same were mixed with water at levels that simulate a 10% dilution of the slurries. In each assessment, test solutions were heated and mixed at […]
The log reduction was calculated using the formula: […]

With `CC(O)C(=O)O` (stereo not shown) [lactic acid, Lactic acid], the “antimicrobial reduction / efficacy (in words)” value is on record as “performed poorly against S. aureus”.
